From US20120196791A1, “COMBINATION THERAPIES USING ANTIBACTERIAL AMINOGLYCOSIDE COMPOUNDS” (Achaogen, Inc., priority 2009, published 2012)
Read-outs that look alike come from different tables or passages of the source.

Assays:
P. aeruginosa strains = assay: MIC by macrodilution; format: cell-based; conditions: Pseudomonas aeruginosa
From the text: (§1) “MIC”, which stands for minimum inhibitory concentration, refers to that concentration, in μg/mL, of a compound of this invention that inhibits the growth and/or proliferation of a strain of bacteria by at least 80% compared to an untreated control as determined by visual inspection of a liquid culture.
Synergy time-kill was used to test the activity of Example 1, alone and in combination with cefepime, doripenem, imipenem and piperacillin/tazobactam, against 10 P. aeruginosa strains. The 10 clinical isolates included 5 cefepime resistant, 5 doripenem resistant, 8 imipenem resistant, and 9 piperacillin/tazobactam resistant strains. MICs were determined by macrodilution and time-kill was used to verify the activity of all five agents alone. MICs were predetermined by macrodilution in cation-adjusted Mueller-Hinton broth (BBL Microbiology Systems, Cockeysville, Md.) according to standard methodology. All strains were tested by time-kill methodology with each compound alone according to standard methods. Strains were examined by PCR for genes encoding aminoglycoside modifying enzymes (AMEs). Cultures were initiated by adding 35-μL aliquots of suspensions into 5 mL of broth. Viability counts (100-μL aliquots) in synergy tests were performed at 0, 3, 6, 12, and 24 h in a shaking water bath at 35° C. with final inocula of between 5×10^5 and 5×10^6 CFU/mL. Only plates with 30 to 300 colonies were counted.

S. aureus strains = assay: MIC by macrodilution; format: cell-based; conditions: Staphylococcus aureus
From the text: as §1
Synergy time-kill was used to test the activity of Example 1, alone and in combination with daptomycin (DAP), ceftobiprole (BPR), and linezolid (LZD), against 25 S. aureus strains. 25 clinical isolates included 2 hVISA, 2 VISA, and 5 VRSA, 10 hospital acquired and 6 community acquired MRSA strains. MICs were determined by macrodilution and time-kill was used to verify the activity of all four agents alone. MICs were predetermined by macrodilution in cation-adjusted Mueller-Hinton broth (BBL Microbiology Systems, Cockeysville, Md.) according to standard methodology. Daptomycin susceptibility testing was performed in Mueller-Hinton broth adjusted to 50 μg/mL of calcium according to standard methodology. All strains were tested by time-kill methodology with each compound alone according to standard methods. Cultures were initiated by adding 35-μL aliquots of suspensions into 5 mL of broth. Viability counts (100-μL aliquots) in synergy tests were performed at 0, 3, 6, 12, and 24 h in a shaking water bath at 35° C. with final inocula of between 5×10^5 and 5×10^6 CFU/mL. Only plates with 30 to 300 colonies were counted.

[1] = range over 10 P. aeruginosa strains, read-out: MICs of each agent alone

For `C[C@@H](O)[C@H]1C(=O)N2C(C(=O)O)=C(S[C@@H]3CN[C@H](CNS(N)(=O)=O)C3)[C@H](C)[C@H]12` [Doripenem, doripenem], the MIC (P. aeruginosa strains; Strain 1, read-out: MIC) was 2 µg/mL, the MIC (P. aeruginosa strains; Strain 2, read-out: MIC) was 0.25 µg/mL and the MIC (P. aeruginosa strains; Strain 3, read-out: MIC) was 4 µg/mL. For the same compound, the MIC (P. aeruginosa strains; Strain 4, read-out: MIC) was 2 µg/mL, the MIC (P. aeruginosa strains; Strain 5, read-out: MIC) was 8 µg/mL and the MIC (P. aeruginosa strains; Strain 6, read-out: MIC) was 0.5 µg/mL. For the same compound, the MIC (P. aeruginosa strains; Strain 7, read-out: MIC) was 8 µg/mL, the MIC (P. aeruginosa strains; Strain 8, read-out: MIC) was 2 µg/mL and the MIC (P. aeruginosa strains; Strain 9, read-out: MIC) was 32 µg/mL. It also gave an MIC (P. aeruginosa strains; Strain 10, read-out: MIC) of 8 µg/mL and an MIC (P. aeruginosa strains; [1]) of 0.25 to 32 µg/mL.

In the case of `C[C@@H](O)[C@H]1C(=O)N2C(C(=O)O)=C(SCCN=CN)C[C@H]12` [Imipenem, imipenem], the MIC (P. aeruginosa strains; Strain 1, read-out: MIC) is reported as 8 µg/mL, the MIC (P. aeruginosa strains; Strain 2, read-out: MIC) is reported as 2 µg/mL and the MIC (P. aeruginosa strains; Strain 3, read-out: MIC) is reported as 8 µg/mL. For the same compound, the MIC (P. aeruginosa strains; Strain 4, read-out: MIC) was 16 µg/mL, the MIC (P. aeruginosa strains; Strain 5, read-out: MIC) was 32 µg/mL and the MIC (P. aeruginosa strains; Strain 6, read-out: MIC) was 0.25 µg/mL. The MIC (P. aeruginosa strains; Strain 7, read-out: MIC) was 4 µg/mL, the MIC (P. aeruginosa strains; Strain 8, read-out: MIC) was 4 µg/mL and the MIC (P. aeruginosa strains; Strain 9, read-out: MIC) was 32 µg/mL. For the same compound, the MIC (P. aeruginosa strains; Strain 10, read-out: MIC) was 32 µg/mL and the MIC (P. aeruginosa strains; [1]) was 0.25 to 32 µg/mL.

With `CC(=O)NC[C@H]1CN(c2ccc(N3CCOCC3)c(F)c2)C(=O)O1` [Linezolid, linezolid] the MIC (S. aureus strains; ATCC 33591 / MRSA, Strain 13, ATCC33591 HA-MRSA, read-out: MIC) was 2 µg/mL, the MIC (S. aureus strains; MRSA, Strain 6, CA-MRSA, PVL+, read-out: MIC) was 4 µg/mL and the MIC (S. aureus strains; MRSA, Strain 7, CA-MRSA, PVL+, read-out: MIC) was 4 µg/mL. The MIC (S. aureus strains; MRSA, Strain 8, CA-MRSA, PVL+, read-out: MIC) was 2 µg/mL, the MIC (S. aureus strains; MRSA, Strain 14, HA-MRSA, read-out: MIC) was 4 µg/mL and the MIC (S. aureus strains; MRSA, Strain 15, HA-MRSA, read-out: MIC) was 4 µg/mL. For the same compound, the MIC (S. aureus strains; MRSA, Strain 16, HA-MRSA, read-out: MIC) was 4 µg/mL, the MIC (S. aureus strains; MRSA, Strain 17, HA-MRSA, read-out: MIC) was 4 µg/mL and the MIC (S. aureus strains; MRSA, Strain 18, HA-MRSA, read-out: MIC) was 4 µg/mL. For the same compound, the MIC (S. aureus strains; MRSA, Strain 19, HA-MRSA, read-out: MIC) was 4 µg/mL, the MIC (S. aureus strains; MRSA, Strain 20, HA-MRSA, read-out: MIC) was 4 µg/mL and the MIC (S. aureus strains; MRSA, Strain 21, HA-MRSA, read-out: MIC) was 4 µg/mL. The MIC (S. aureus strains; MRSA, Strain 22, HA-MRSA, read-out: MIC) was 4 µg/mL, the MIC (S. aureus strains; MRSA, Strain 23, CA-MRSA PVL+, read-out: MIC) was 4 µg/mL and the MIC (S. aureus strains; MRSA, Strain 24, CA-MRSA PVL+, read-out: MIC) was 4 µg/mL. It also gave an MIC (S. aureus strains; MRSA, Strain 25, CA-MRSA PVL neg, read-out: MIC) of 4 µg/mL, an MIC (S. aureus strains; Strain 9, hVISA, read-out: MIC) of 4 µg/mL and an MIC (S. aureus strains; Strain 10, hVISA, read-out: MIC) of 2 µg/mL. It also gave an MIC (S. aureus strains; VISA, Strain 11, VISA, read-out: MIC) of 2 µg/mL, an MIC (S. aureus strains; VISA, Strain 12, VISA, read-out: MIC) of 4 µg/mL and an MIC (S. aureus strains; VRSA, Strain 1, VRSA, read-out: MIC) of 2 µg/mL. The MIC (S. aureus strains; VRSA, Strain 2, VRSA, read-out: MIC) was 4 µg/mL, the MIC (S. aureus strains; VRSA, Strain 3, VRSA, read-out: MIC) was 2 µg/mL and the MIC (S. aureus strains; VRSA, Strain 4, VRSA, read-out: MIC) was 4 µg/mL. For the same compound, the MIC (S. aureus strains; VRSA, Strain 5, VRSA, read-out: MIC) was 2 µg/mL and the MIC (S. aureus strains; range over 25 S. aureus strains, read-out: MICs of each agent alone) was 2 to 4 µg/mL.

In the case of `CO/N=C(\C(=O)N[C@@H]1C(=O)N2C(C(=O)[O-])=C(C[N+]3(C)CCCC3)CS[C@H]12)c1csc(N)n1` [Cefepime, cefepime], the MIC (P. aeruginosa strains) is reported as 256 µg/mL, the MIC (P. aeruginosa strains; Strain 1, read-out: MIC) is reported as 16 µg/mL and the MIC (P. aeruginosa strains; Strain 2, read-out: MIC) is reported as 4 µg/mL. For the same compound, the MIC (P. aeruginosa strains; Strain 3, read-out: MIC) was 8 µg/mL, the MIC (P. aeruginosa strains; Strain 4, read-out: MIC) was 8 µg/mL and the MIC (P. aeruginosa strains; Strain 5, read-out: MIC) was 32 µg/mL. For the same compound, the MIC (P. aeruginosa strains; Strain 6, read-out: MIC) was 1 µg/mL, the MIC (P. aeruginosa strains; Strain 7, read-out: MIC) was 16 µg/mL and the MIC (P. aeruginosa strains; Strain 8, read-out: MIC) was 4 µg/mL. It also gave an MIC (P. aeruginosa strains; Strain 9, read-out: MIC) of 32 µg/mL and an MIC (P. aeruginosa strains; [1]) of 1 to 256 µg/mL.
